What was measured:
Format in all cases: cell-based, human
[1] = tested on: CD4+ T cells; experiment: IFN-γ ELISPOT of CD4+ T cells presensitized with overlapping NY-ESO-1 18 mer peptides
Method: Peripheral blood mono-nuclear cells (“PBMCs”) were separated from heparinized blood via Ficoll density gradient separation, using standard, art recognized techniques. Once this was done, the CD4^+ and CD8^+ T cells were separated from each other using magnetic cell sorting techniques which are well known to the art, producing CD4^+, CD8^+, and CD4^−/CD8^− cell populations.
A series of 18 mer peptides were prepared from the amino acid sequence of NY-ESO-1 as set forth in, e.g., U.S. Pat. No. 5,804,381, incorporated by reference. The peptides were designed to cover the entire sequence of NY-ESO-1, and to provide overlap.
The peptides were then individually pulsed to antigen presenting cells (“APCs”). These were CD4^−/CD8^− PBMCs taken from the same subjects who had provided the CD4^+ and CD8^+ cells. These APCs were irradiated with 3000 rads, and then pulsed with one of the peptides, at a concentration of 10 μg/ml, for 1 hour, in serum free medium. These APCs were then washed, and added to the CD4^+ cells. In the pulsing experiments, the peptides were solubilized in DMSO (100%) and then diluted with PBS to a final concentration of 10% DMSO. The CD4^+ cells had been cultured in a medium of L-arginine (242 mg/l), L-asparagene (50 mg/l), L-glutamine (300 mg/l), penicillin (10 IU/ml), streptomycin (100 μg/ml), 1% non-essential amino acids, 10% HS, and 10 ng/ml of recombinant human IL-2.
The CD4^+ T cells were restimulated weekly with 1 μg/ml of the peptide being used. On day 12, each CD4^+ culture was assayed for NY-ESO-1 peptide recognition, using the ELISPOT assay of lager, et al., Proc. Natl. Acad. Sci. USA, 97(9):4760-4765 (2000), incorporated by reference. To elaborate on this procedure, flat-bottomed, 96-well nitrocellulose plates were coated with 5 μg/ml of anti-interferon-gamma antibody and incubated overnight at 4° C. After washing with PBS, plates were blocked with 10% human serum (HS) for 1 hour at 37° C. Depending on the effector:target ratio used, various numbers of presensitized CD4^+ T-cells were added to each well along with 5×10^4 autologous peptide pulsed EBV transfected B cells (“EBV-B cells”) serving as target cells and incubated for 16 hours at 37° C. in TCM without IL-2. Plates were then washed extensively (6 times with a solution of 0.05% Tween 20/PBS), and biotinylated anti-interferon-gamma detection antibody was added at a concentration of 0.5 μg/ml. After incubation for 2 h at 37° C., plates were washed and incubated with ABC-AP Vectastain for 1 hour. Plates were washed again and developed with substrate (BCIP/NPT) until blue spots were visible. The number of blue spots/well represented the proportion of NY-ESO-1 specific CD4^+ T-cells/well was finally counted under the microscope.
The EBV-B-cells were generated from each patients' PBMC following standard methods and maintained in RPMI 1640 medium supplemented with 10 mM Hepes buffer, L-arginine (242 mg/l), L-asparagine (50mg/l), L-glutamine (300 mg/l), penicillin (10 IU/ml), streptomycin (100 μg/ml), 1% non-essential amino acids, and 10% FCS. […] PBMC's or EBV-B-cells were molecularly typed for HLA expression using standard procedures.

[2] = tested on: CD4+ T cell clones NW2337-CD4-1 and NW2337-CD4-10; experiment: 51Cr release assay with peptide-pulsed EBV-B target cells
Method: In these experiments, exemplary clones NY-ESO-1 p49-66 specific CD4^+ T cell clone NW2337-CD4-1 and NY-ESO-1 p55-72 specific CD4^+ T cell clone NW2337-CD4-10 were characterized in ^51Chromium (^51Cr) release assays using peptides overlapping the sequence of each stimulation peptide. Standard ^51Cr release assay methods were used. Briefly, autologous EBV B cell target cells were labeled with 100 μCi Na2^51CrO4 for 2 hours, and pulsed with 18 mer or 20 mer NY-ESO-1 peptides (10 μg/ml) for 1 hour. Then, 1×10^3 target cells/well were incubated in 96 V- bottom microwell plates with effector cells at different E/T ratios for 4 h at 37° C. ^51Cr release was measured in the supernatant and the specific cytotoxicity was calculated using the standard methods. Polyclonal T-cell populations were preincubated with unlabeled K562 cells as competitors at a concentration of 40:1 in order to block non-specific effector reactions.
These experiments confirmed recognition of naturally presented NY-ESO-1 epitopes by the CD4+ T-cell clones.

[3] = tested on: NW2337 CD4+ T cells; experiment: Cytokine ELISPOT assays (IFNγ, TNFα, IL4, IL10) of NW2337 CD4+ T cells
Source text: All ELISPOT assay described, supra were designed to detect IFN-γ secretion by the T cell clones following specific antigen stimulation. To determine the phenotype of the NY-ESO-1 specific CD4^+ T cell clones from patient NW2337, additional ELISPOT assays were designed to detect additional cytokines.
The NW2337 CD4^+ T cells were stimulated with either NY-ESO-1 p49-66 and p55-72 peptides and T cells secretion of IFNγ, TNFα, IL4 and IL10measured by ELISPOT assay. […] IL4 and IL10 was not secreted by any of the NY-ESO-1 specific CD4^+ T-cell clones tested following stimulation with NY-ESO-1 p49-66 and p55-72 peptides.

[4] = tested on: CD8+ T-cells; experiment: ELISPOT of CD8+ T-cells presensitized with Ad2/ESO infected PBMC
Method: To examine the possibility that one of the novel MHC class II epitopes described in this study may also represent an MHC class I binding peptide epitope, CD8^+ T-cells from the patients described above, were presensitized with autologous CD4^−/CD8^− PBMC infected with the recombinant adenovirus Ad2/ESO. Responder T-cells were tested in ELISPOT assays for recognition of autologous APC's pulsed with the 28 overlapping 18 mer peptides described in Table 2.

[5] = tested on: CD4+ T cells; experiment: IFN-γ ELISPOT of CD4+ T cells presensitized with overlapping NY-ESO-1 18 mer peptides; conditions: patient NW2337, limiting dilution

P55-72: synthetic 18 mer peptide, amino acids 55-72 of NY-ESO-1 (GPGGGAPRGPHGGAASGL; UniProt P78358 55-72, looked up, fragment) [Peptide P55-72]
Patient T cells 1 ([1]; IFN-γ ELISPOT, day 12, CD4+ T cells of patient 1, autologous peptide pulsed EBV-B cells as targets): + (+ indicates >50 spots (all + scores indicated were >100 spots)) | Patient T cells 2 ([1]; IFN-γ ELISPOT, day 12, CD4+ T cells of patient 2, autologous peptide pulsed EBV-B cells as targets): + (+ indicates >50 spots (all + scores indicated were >100 spots)) | Patient T cells 3 ([1]; IFN-γ ELISPOT, day 12, CD4+ T cells of patient 3, autologous peptide pulsed EBV-B cells as targets): + (+ indicates >50 spots (all + scores indicated were >100 spots)) | patients whose CD4+ T cells recognized the peptide ([1]; three patients tested): all three patients | lysis of peptide pulsed autologous NW-2337-EBV B-cell lines by clones NW-2337-CD4-3 and -10 [2]: efficiently lysed | recognition by clone NW2337-CD4-1 ([2]; autologous EBV B cells pulsed with peptide 10 μg/ml, clone generated with p49-66): crossreacted | recognition by clone NW2337-CD4-10 ([2]; autologous EBV B cells pulsed with peptide 10 μg/ml, clone generated with p55-72): recognized | IFN-γ secretion by stimulated T cell clones [3]: produced | IL4 secretion by stimulated T cell clones [3]: not secreted | IL10 secretion by stimulated T cell clones [3]: not secreted | TNF-α secretion by stimulated T cell clones [3]: produced | NW1454 CD8+ T-cell recognition of peptide pulsed T2-A3 and HLA-A3 expressing NW115 EBV-B-cell target cells [4]: recognition | recognition by CD8+ T-cells ([4]; CD8+ T-cells from patient NW1231, NW1454 and NW2427, autologous APC's pulsed with peptide): observed | HLA class I molecule presenting the peptide ([4]; only shared HLA class I allele of the three patients): HLA-A3 | CD4+ T-cell clones generated by stimulation with peptide [5]: 53

— patent US7632506B2, “Identification of new NY-ESO-1 epitopes recognized by CD4+ T-cells” (Ludwig Institute for Cancer Research, priority 2005, dated 2009)
